In PubChem BioAssay AID248 (DTP/NCI, 2004):
Several values for one entry are separate records, joined by “and”; a condition that tells them apart may be missing. Equal values may be shown once. Toxic doses and inconclusive results are not listed.

System: L1210 leukemia ip in BDF1 mice, survival T/C
Test: NCI In Vivo Anticancer Drug Screen. Data for tumor model L1210 Leukemia (intraperitoneal) in B6D2F1 (BDF1) mice
Settings: endpoint: mean survival time, higher = longer survival
Method in brief: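 Each compound was tested against a transplantable tumor grown in mice. The endpoint was survival, with treated animals benchmarked against vehicle controls as a simple ratio.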

## CN(Cc1cnc2nc(N)nc(N)c2n1)c1c(Cl)cc(C(=O)NC(CCC(=O)O)C(=O)O)cc1Cl (configuration not stated)
dose: 0.05 mg/kg/injection, schedule: Q03HX024 (ip), vehicle: alkali diluted with saline
  T/C: 108 % of control
dose: 0.12 mg/kg/injection, schedule: Q01DX Z (ip), vehicle: saline
  T/C: 103 % of control
dose: 0.2 mg/kg/injection, schedule: Q03HX024 (ip), vehicle: alkali diluted with saline
  T/C: 121 % of control
dose: 0.31 mg/kg/injection, schedule: Q03HX008 (ip), vehicle: carboxymethylcellulose (CMC)
  T/C: 114 % of control
dose: 0.39 mg/kg/injection, schedule: Q03HX024 (ip), vehicle: carboxymethylcellulose (CMC)
  T/C: 111 % of control
dose: 0.5 mg/kg/injection, schedule: Q01DX Z (ip), vehicle: saline
  T/C: 106 % of control
dose: 0.5 mg/kg/injection, schedule: Q01DX Z (sc), vehicle: alkali diluted with saline
  T/C: 102 % of control
dose: 0.6 mg/kg/injection, schedule: Q## X008 (ip), vehicle: alkali diluted with saline
  T/C: 106 % of control
dose: 0.63 mg/kg/injection, schedule: Q03HX008 (ip), vehicle: carboxymethylcellulose (CMC)
  T/C: 119 % of control
dose: 0.78 mg/kg/injection, schedule: Q03HX024 (ip), vehicle: carboxymethylcellulose (CMC)
  T/C: 114 % of control
dose: 1.0 mg/kg/injection, schedule: Q01DX Z (im), vehicle: alkali diluted with saline
  T/C: 107 % of control
dose: 1.0 mg/kg/injection, schedule: Q01DX Z (ip), vehicle: saline
  T/C: 122 % of control
dose: 1.0 mg/kg/injection, schedule: Q01DX Z (sc), vehicle: alkali diluted with saline
  T/C: 95 % of control
dose: 2.5 mg/kg/injection, schedule: Q01DX005 (ip), vehicle: carboxymethylcellulose (CMC)
  T/C: 117 % of control
dose: 2.5 mg/kg/injection, schedule: Q01DX Z (im), vehicle: alkali diluted with saline
  T/C: 102 % of control
dose: 2.5 mg/kg/injection, schedule: Q01DX Z (sc), vehicle: alkali diluted with saline
  T/C: 106 % of control
dose: 3.0 mg/kg/injection, schedule: Q01DX Z (ip), vehicle: carboxymethylcellulose (CMC)
  T/C: 159 % of control
dose: 3.0 mg/kg/injection, schedule: Q01DX Z (ip), vehicle: saline
  T/C: 169 % of control
dose: 4.0 mg/kg/injection, schedule: Q## X008 (ip), vehicle: alkali diluted with saline
  T/C: 104 % of control
dose: 5.0 mg/kg/injection, schedule: Q01DX005 (ip), vehicle: carboxymethylcellulose (CMC)
  T/C: 120 % of control
dose: 5.0 mg/kg/injection, schedule: Q01DX009 (ip), vehicle: carboxymethylcellulose (CMC)
  T/C: 121 % of control
dose: 5.0 mg/kg/injection, schedule: Q01DX009 (sc), vehicle: carboxymethylcellulose (CMC)
  T/C: 115 % of control
dose: 5.0 mg/kg/injection, schedule: Q01DX Z (im), vehicle: alkali diluted with saline
  T/C: 112 % of control
dose: 5.0 mg/kg/injection, schedule: Q01DX Z (oral), vehicle: alkali diluted with saline
  T/C: 120 % of control
dose: 5.0 mg/kg/injection, schedule: Q01DX Z (sc), vehicle: alkali diluted with saline
  T/C: 105 % of control
dose: 5.0 mg/kg/injection, schedule: Q#A X Z (ip), vehicle: methylcellulose (MC)
  T/C: 162 % of control
dose: 6.0 mg/kg/injection, schedule: Q01DX Z (ip), vehicle: carboxymethylcellulose (CMC)
  T/C: 161 % of control
dose: 6.25 mg/kg/injection, schedule: Q03HX024 (ip), vehicle: carboxymethylcellulose (CMC)
  T/C: 116 % of control
dose: 9.0 mg/kg/injection, schedule: Q01DX Z (ip), vehicle: clinical formulation
  T/C: 157 % of control
dose: 10.0 mg/kg/injection, schedule: Q01DX006 (iv), vehicle: alkali diluted with saline
  T/C: 106 % of control
dose: 10.0 mg/kg/injection, schedule: Q01DX Z (im), vehicle: alkali diluted with saline
  T/C: 159 % of control
dose: 10.0 mg/kg/injection, schedule: Q01DX Z (ip), vehicle: saline
  T/C: 167 % of control
dose: 10.0 mg/kg/injection, schedule: Q01DX Z (oral), vehicle: alkali diluted with saline
  T/C: 120 % of control
dose: 10.0 mg/kg/injection, schedule: Q01DX Z (sc), vehicle: alkali diluted with saline
  T/C: 159 % of control
dose: 12.5 mg/kg/injection, schedule: Q03HX024 (ip), vehicle: carboxymethylcellulose (CMC)
  T/C: 122 % of control
dose: 15.0 mg/kg/injection, schedule: Q## X008 (ip), vehicle: alkali diluted with saline
  T/C: 114 % of control
dose: 20.0 mg/kg/injection, schedule: Q01DX006 (iv), vehicle: alkali diluted with saline
  T/C: 123 % of control
dose: 20.0 mg/kg/injection, schedule: Q01DX007 (ip), vehicle: other
  T/C: 160 % of control
dose: 20.0 mg/kg/injection, schedule: Q01DX009 (ip), vehicle: carboxymethylcellulose (CMC)
  T/C: 153 % of control
dose: 20.0 mg/kg/injection, schedule: Q01DX Z (oral), vehicle: alkali diluted with saline
  T/C: 115 % of control
dose: 20.0 mg/kg/injection, schedule: Q#A X Z (ip), vehicle: olive oil, sesame oil, peanut oil
  T/C: 116 % of control
dose: 25.0 mg/kg/injection, schedule: Q04DX003 (ip), vehicle: alkali diluted with saline
  T/C: 112 % of control
dose: 25.0 mg/kg/injection, schedule: Q04DX003 (ip), vehicle: carboxymethylcellulose (CMC)
  T/C: 117 % of control
dose: 25.0 mg/kg/injection, schedule: Q## X003 (ip), vehicle: other
  T/C: 106 % of control
dose: 25.0 mg/kg/injection, schedule: Q## X016 (ip), vehicle: other
  T/C: 115 % of control
dose: 30.0 mg/kg/injection, schedule: Q01DX Z (ip), vehicle: carboxymethylcellulose (CMC)
  T/C: 159 % of control
dose: 30.0 mg/kg/injection, schedule: Q03DX Z (ip), vehicle: methylcellulose (MC)
  T/C: 122 % of control
dose: 40.0 mg/kg/injection, schedule: Q01DX007 (ip), vehicle: other
  T/C: 163 % of control
dose: 40.0 mg/kg/injection, schedule: Q01DX009 (ip), vehicle: carboxymethylcellulose (CMC)
  T/C: 161 % of control
dose: 40.0 mg/kg/injection, schedule: Q01DX Z (ip), vehicle: methylcellulose (MC)
  T/C: 169 % of control
dose: 40.0 mg/kg/injection, schedule: Q01DX Z (oral), vehicle: alkali diluted with saline
  T/C: 102 % of control
dose: 50.0 mg/kg/injection, schedule: Q## X003 (ip), vehicle: other
  T/C: 124 % of control
dose: 50.0 mg/kg/injection, schedule: Q## X016 (ip), vehicle: other
  T/C: 121 % of control
dose: 67.5 mg/kg/injection, schedule: Q01DX Z (ip), vehicle: saline
  T/C: 150 % of control
dose: 70.0 mg/kg/injection, schedule: Q01DX001 (ip), vehicle: methylcellulose (MC)
  T/C: 116 % of control
dose: 70.0 mg/kg/injection, schedule: Q01DX Z (ip), vehicle: clinical formulation
  T/C: 103 % of control
dose: 70.0 mg/kg/injection, schedule: Q07DX Z (ip), vehicle: methylcellulose (MC)
  T/C: 116 % of control
dose: 80.0 mg/kg/injection, schedule: Q01DX005 (ip), vehicle: carboxymethylcellulose (CMC)
  T/C: 158 % of control
dose: 80.0 mg/kg/injection, schedule: Q01DX006 (iv), vehicle: alkali diluted with saline
  T/C: 165 % of control
dose: 80.0 mg/kg/injection, schedule: Q01DX Z (im), vehicle: alkali diluted with saline
  T/C: 113 % of control
dose: 80.0 mg/kg/injection, schedule: Q01DX Z (oral), vehicle: alkali diluted with saline
  T/C: 94 % of control
dose: 80.0 mg/kg/injection, schedule: Q01DX Z (sc), vehicle: alkali diluted with saline
  T/C: 112 % of control
dose: 90.0 mg/kg/injection, schedule: Q01DX Z (ip), vehicle: saline
  T/C: 94 % of control
dose: 100.0 mg/kg/injection, schedule: Q01DX001 (sc), vehicle: carboxymethylcellulose (CMC)
  T/C: 111 % of control
dose: 100.0 mg/kg/injection, schedule: Q04DX003 (ip), vehicle: alkali diluted with saline
  T/C: 124 % of control
dose: 120.0 mg/kg/injection, schedule: Q01DX001 (ip), vehicle: carboxymethylcellulose (CMC)
  T/C: 117 % of control
dose: 120.0 mg/kg/injection, schedule: Q03DX Z (ip), vehicle: methylcellulose (MC)
  T/C: 153 % of control
dose: 120.0 mg/kg/injection, schedule: Q## X008 (ip), vehicle: other
  T/C: 112 % of control
dose: 140.0 mg/kg/injection, schedule: Q01DX001 (ip), vehicle: methylcellulose (MC)
  T/C: 116 % of control
dose: 140.0 mg/kg/injection, schedule: Q01DX Z (ip), vehicle: clinical formulation
  T/C: 110 % of control
dose: 140.0 mg/kg/injection, schedule: Q07DX Z (ip), vehicle: methylcellulose (MC)
  T/C: 123 % of control
dose: 200.0 mg/kg/injection, schedule: Q01DX001 (sc), vehicle: carboxymethylcellulose (CMC)
  T/C: 114 % of control
dose: 200.0 mg/kg/injection, schedule: Q01DX001 (sc), vehicle: other
  T/C: 121 % of control
dose: 200.0 mg/kg/injection, schedule: Q04DX003 (ip), vehicle: carboxymethylcellulose (CMC)
  T/C: 157 % of control
dose: 200.0 mg/kg/injection, schedule: Q## X016 (ip), vehicle: other
  T/C: 162 % of control
dose: 240.0 mg/kg/injection, schedule: Q01DX001 (ip), vehicle: alkali diluted with saline
  T/C: 115 % of control
dose: 240.0 mg/kg/injection, schedule: Q01DX001 (ip), vehicle: other
  T/C: 113 % of control
dose: 240.0 mg/kg/injection, schedule: Q## X008 (ip), vehicle: other
  T/C: 112 % of control
dose: 285.0 mg/kg/injection, schedule: Q01DX001 (ip), vehicle: carboxymethylcellulose (CMC)
  T/C: 110 % of control
dose: 400.0 mg/kg/injection, schedule: Q01DX001 (ip), vehicle: olive oil, sesame oil, peanut oil
  T/C: 114 % of control
dose: 400.0 mg/kg/injection, schedule: Q01DX001 (sc), vehicle: other
  T/C: 121 % of control
dose: 400.0 mg/kg/injection, schedule: Q04DX003 (ip), vehicle: alkali diluted with saline
  T/C: 166 % of control
dose: 400.0 mg/kg/injection, schedule: Q07DX Z (ip), vehicle: olive oil, sesame oil, peanut oil
  T/C: 97 % of control
dose: 434.0 mg/kg/injection, schedule: Q01DX001 (ip), vehicle: carboxymethylcellulose (CMC)
  T/C: 121 % of control
dose: 480.0 mg/kg/injection, schedule: Q01DX001 (ip), vehicle: alkali diluted with saline
  T/C: 122 % of control
dose: 560.0 mg/kg/injection, schedule: Q01DX001 (ip), vehicle: methylcellulose (MC)
  T/C: 123 % of control
dose: 800.0 mg/kg/injection, schedule: Q01DX001 (ip), vehicle: olive oil, sesame oil, peanut oil
  T/C: 109 % of control and 120 % of control
dose: 800.0 mg/kg/injection, schedule: Q04DX003 (ip), vehicle: alkali diluted with saline
  T/C: 168 % of control
dose: 800.0 mg/kg/injection, schedule: Q07DX Z (ip), vehicle: olive oil, sesame oil, peanut oil
  T/C: 106 % of control
dose: 800.0 mg/kg/injection, schedule: Q## X003 (ip), vehicle: other
  T/C: 169 % of control
dose: 800.0 mg/kg/injection, schedule: Q## X016 (ip), vehicle: other
  T/C: 165 % of control
dose: 875.0 mg/kg/injection, schedule: Q01DX001 (ip), vehicle: alkali diluted with saline
  T/C: 158 % of control
dose: 960.0 mg/kg/injection, schedule: Q01DX001 (ip), vehicle: carboxymethylcellulose (CMC)
  T/C: 158 % of control
dose: 1200.0 mg/kg/injection, schedule: Q01DX001 (ip), vehicle: olive oil, sesame oil, peanut oil
  T/C: 115 % of control and 122 % of control
dose: 1200.0 mg/kg/injection, schedule: Q07DX Z (ip), vehicle: olive oil, sesame oil, peanut oil
  T/C: 95 % of control
dose: 1600.0 mg/kg/injection, schedule: Q04DX003 (ip), vehicle: alkali diluted with saline
  T/C: 98 % of control
dose: 1600.0 mg/kg/injection, schedule: Q07DX Z (ip), vehicle: olive oil, sesame oil, peanut oil
  T/C: 101 % of control
